These results are taken from patent US12304890B2, “R-type pyridyloxycarboxylic acid, salt and ester derivative thereof, and preparation method therefor, and herbicidal composition and application thereof” (Qingdao Kingagroot Chemical Compound Co., Ltd., priority 2018, dated 2025).

Assay type in all cases: in vivo
One data set has as its system Monochoria vaginalis. The data set can be described thus: Weed control effect evaluation in rice field. The conditions noted are these: paddy pot, 0.5 leaf stage, 1000 g a.i./ha, 14 days; weed resistant to pyrazosulfuron-ethyl and penoxsulam. As to the method: Rice field soil was loaded into a 1/1,000,000 ha pot. The seeds of Monochoria vaginalis were sowed and gently covered with soil, then left to stand still in greenhouse in the state of 0.5-1 cm of water storage. It was kept at 3-4 cm of water storage thereafter. The weeds were treated by dripping the WP or SC water diluents prepared according to the common preparation method of the compounds of the present invention with pipette homogeneously to achieve specified effective amount when Monochoria vaginalis reached 0.5 leaf stage.
(§1) The fertility condition of Monochoria vaginalis 14 days and rice 21 days after the treatment of the compound of the invention with the naked eye.

Data set [1] relates to Semen Euphorbiae Lathyridis. The data set is described as follows: Post-emergence test experiment, Semen Euphorbiae Lathyridis. The conditions noted are these: 3 weeks; for inhibition at 200 g/ha: 504 h, read-out: Semen Euphorbiae Lathyridis, activity level (growth inhibition rate). The procedure, abridged: (§2)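 Greenhouse-grown plants sprayed at the 2-3 leaf stage, 2 weeks after sowing, with compound in acetone/tween-80 diluted in water plus 1.5 L/ha methyl oleate emulsifiable concentrate as synergist. Effect scored 3 weeks later as fresh weight inhibition rate.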

Data set [2] relates to Monocotyledonous and dicotyledonous weed seeds and main crop seeds. The data set can be described thus: Post-emergence test experiment, other weeds and crops (Table 4, 1000 g a.i./ha). The conditions noted are these: 3 weeks in greenhouse, fresh weight inhibition. The procedure, abridged:
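Weed and crop seeds (wheat, corn, rice, soybean, cotton, oilseed, millet, sorghum) sown in soil pots in a greenhouse and sprayed at 2-3 leaf stage, 2 weeks after sowing. Compound in acetone/tween-80 with methyl oleate concentrate (1.5 L/ha) as synergist. Effect recorded as fresh-weight growth inhibition rate.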

The test system of a further data set is Echinochloa crusgalli. The data set can be described thus: Post-emergence test experiment, Echinochloa crusgalli. The conditions noted are these: for Activity level (growth inhibition rate), Echinochloa crusgalli: 1000 g a.i./ha, 3 weeks in greenhouse, fresh weight inhibition; for inhibition at 200 g/ha: Echinochloa crus-galli, 504 h, read-out: Echinochloa crusgalli, activity level (growth inhibition rate); for inhibition at 200 g/ha / Echinochloa crusgalli, activity level (growth inhibition rate): 3 weeks. In outline: as §2

A further data set has as its system rice. The data set can be described thus: Post-emergence test experiment, rice (crop selectivity). The conditions noted are these: 3 weeks. In outline: as §2
A further data set relates to rice (japonica rice). The data set can be described thus: Transplanted rice safety evaluation. The note with it: transplanted 3-leaf japonica rice, 1000 g a.i./ha, 21 days after treatment. As to the method:
In addition, the rice field soil that loaded into the 1/1,000,000 ha pot was leveled to keep water storage at 3-4 cm depth. The 3-leaf stage rice (japonica rice) was transplanted at 3 cm of transplanting depth the next day. The compound of the present invention was treated by the same way after 5 days of transplantation.
as §1

The next data set concerns Digitaria sanguinalis. The data set is described as follows: Post-emergence test experiment, Digitaria sanguinalis. The note with it: for Activity level (growth inhibition rate), Digitaria sanguinalis: 1000 g a.i./ha, 3 weeks in greenhouse, fresh weight inhibition; for inhibition at 200 g/ha: Digitaria sanguinalis, 504 h, read-out: Digitaria sanguinalis, activity level (growth inhibition rate); for inhibition at 200 g/ha / Digitaria sanguinalis, activity level (growth inhibition rate): 3 weeks. The procedure, abridged: as §2

Setting [3] is: 200 g a.i./ha, weed resistant to cyhalofop-butyl.
[4] abbreviates: 200 g a.i./ha, weed resistant to ALS inhibitor and ACCe herbicides.

As usually defined, the inhibition is the percentage by which the read-out fell short of the control.

Consider `COC(=O)[C@@H](C)Oc1nc(F)c(Cl)c(N)c1Cl` [Compound 2-69], for which, in the data set on Monochoria vaginalis, the “Monochoria Vaginalis, activity level 0-5” value is on record as 5 (Level 5: the growth inhibition rate is greater than 85%). Moreover, in data set [1] (setting [3]), the inhibition at 200 g/ha is above 85%. For the same compound, in data set [2], the “Activity level (growth inhibition rate), Abutilon theophrasti Medic.” value is reported as 5 (Level 5: the growth inhibition rate is greater than 85%); the “Activity level (growth inhibition rate), Galium aparine” value is 5 (Level 5: the growth inhibition rate is greater than 85%); the “Activity level (growth inhibition rate), Monochoria Vaginalis” value is 5 (Level 5: the growth inhibition rate is greater than 85%). Moreover, the “Activity level (growth inhibition rate), Echinochloa crusgalli” value in the data set on Echinochloa crusgalli is listed as 5 (Level 5: the growth inhibition rate is greater than 85%). Moreover, in the data set with Echinochloa crusgalli (setting [4]), the inhibition at 200 g/ha is above 85%. Further, the “rice, activity level (growth inhibition rate)” value (“rice … (growth inhibition rate)” below) with rice (200 g a.i./ha) is reported as 0 (Level 0: the growth inhibition rate is less than 5%). In the data set with rice (japonica rice), the “rice, safety level 0-5” value is recorded as 0 (Level 0: the growth inhibition rate is less than 5%). The “Activity level (growth inhibition rate), Digitaria sanguinalis” value in the data set on Digitaria sanguinalis is recorded as 5 (Level 5: the growth inhibition rate is greater than 85%). Also, the inhibition at 200 g/ha in the data set with Digitaria sanguinalis (setting [3]) was above 85%.

For the compound `CSC(=O)[C@@H](C)Oc1nc(F)c(Cl)c(N)c1Cl` [Compound 2-70], in the data set on Monochoria vaginalis, the “Monochoria Vaginalis, activity level 0-5” value is 5 (Level 5: the growth inhibition rate is greater than 85%). Besides, the “Semen Euphorbiae Lathyridis, activity level (growth inhibition rate)” value in data set [1] (setting [3]) was 5 (Level 5: the growth inhibition rate is greater than 85%). Further, in data set [2], the “Activity level (growth inhibition rate), Abutilon theophrasti Medic.” value is 5 (Level 5: the growth inhibition rate is greater than 85%); the “Activity level (growth inhibition rate), Galium aparine” value is reported as 5 (Level 5: the growth inhibition rate is greater than 85%); the “Activity level (growth inhibition rate), Monochoria Vaginalis” value is 5 (Level 5: the growth inhibition rate is greater than 85%). For the same compound, the “Echinochloa crusgalli, activity level (growth inhibition rate)” value in the data set with Echinochloa crusgalli (setting [4]) was 5 (Level 5: the growth inhibition rate is greater than 85%). The “Activity level (growth inhibition rate), Echinochloa crusgalli” value in the data set with Echinochloa crusgalli is 5 (Level 5: the growth inhibition rate is greater than 85%). For the same compound, in the data set on rice (200 g a.i./ha), the “rice … (growth inhibition rate)” value is 0 (Level 0: the growth inhibition rate is less than 5%). For the same compound, in the data set with rice (japonica rice), the “rice, safety level 0-5” value is 0 (Level 0: the growth inhibition rate is less than 5%). Also, the “Digitaria sanguinalis, activity level (growth inhibition rate)” value in the data set on Digitaria sanguinalis (setting [3]) is reported as 5 (Level 5: the growth inhibition rate is greater than 85%). In the data set with Digitaria sanguinalis, the “Activity level (growth inhibition rate), Digitaria sanguinalis” value is on record as 5 (Level 5: the growth inhibition rate is greater than 85%).

With `CCOC(=O)[C@@H](C)Oc1nc(F)c(Cl)c(N)c1Cl` [Compound 2-71], in the data set on Monochoria vaginalis, the “Monochoria Vaginalis, activity level 0-5” value is 5 (Level 5: the growth inhibition rate is greater than 85%). The “Semen Euphorbiae Lathyridis, activity level (growth inhibition rate)” value in data set [1] (setting [3]) is given as 5 (Level 5: the growth inhibition rate is greater than 85%); in data set [1] (400 g a.i./ha, resistant weed), 5 (Level 5: the growth inhibition rate is greater than 85%). Also, the “Activity level (growth inhibition rate), Abutilon theophrasti Medic.” value in data set [2] was 5 (Level 5: the growth inhibition rate is greater than 85%). Besides, the “Activity level (growth inhibition rate), Galium aparine” value in data set [2] is 5 (Level 5: the growth inhibition rate is greater than 85%). For the same compound, the “Activity level (growth inhibition rate), Monochoria Vaginalis” value in data set [2] is listed as 5 (Level 5: the growth inhibition rate is greater than 85%). Further, the “Echinochloa crusgalli, activity level (growth inhibition rate)” value with Echinochloa crusgalli (setting [4]) is on record as 5 (Level 5: the growth inhibition rate is greater than 85%); in the data set on Echinochloa crusgalli (400 g a.i./ha, resistant weed) it was 5 (Level 5: the growth inhibition rate is greater than 85%). In addition, the “Activity level (growth inhibition rate), Echinochloa crusgalli” value in the data set on Echinochloa crusgalli was 5 (Level 5: the growth inhibition rate is greater than 85%). Besides, the “rice … (growth inhibition rate)” value in the data set with rice (200 g a.i./ha) was 0 (Level 0: the growth inhibition rate is less than 5%); in the data set on rice (400 g a.i./ha), 2 (Level 2: the growth inhibition rate is equal to or greater than 20% and less than 40%). Besides, the “rice, safety level 0-5” value in the data set with rice (japonica rice) is reported as 0 (Level 0: the growth inhibition rate is less than 5%). The “Digitaria sanguinalis, activity level (growth inhibition rate)” value is recorded as 5 (Level 5: the growth inhibition rate is greater than 85%) in the data set with Digitaria sanguinalis (setting [3]) and 5 (Level 5: the growth inhibition rate is greater than 85%) with Digitaria sanguinalis (400 g a.i./ha, resistant weed). In addition, the “Activity level (growth inhibition rate), Digitaria sanguinalis” value with Digitaria sanguinalis was 5 (Level 5: the growth inhibition rate is greater than 85%).

Regarding `CCOC(=O)COC(=O)C(C)Oc1nc(F)c(Cl)c(N)c1Cl` (stereo not shown) [Compound 2-294], the “Monochoria Vaginalis, activity level 0-5” value in the data set with Monochoria vaginalis is on record as 5 (Level 5: the growth inhibition rate is greater than 85%). Further, the “Semen Euphorbiae Lathyridis, activity level (growth inhibition rate)” value in data set [1] (setting [3]) is on record as 5 (Level 5: the growth inhibition rate is greater than 85%). Besides, in data set [2], the “Activity level (growth inhibition rate), Abutilon theophrasti Medic.” value is reported as 5 (Level 5: the growth inhibition rate is greater than 85%); the “Activity level (growth inhibition rate), Galium aparine” value was 5 (Level 5: the growth inhibition rate is greater than 85%); the “Activity level (growth inhibition rate), Monochoria Vaginalis” value is reported as 5 (Level 5: the growth inhibition rate is greater than 85%). Further, the “Echinochloa crusgalli, activity level (growth inhibition rate)” value in the data set with Echinochloa crusgalli (setting [4]) was 5 (Level 5: the growth inhibition rate is greater than 85%). Also, in the data set with Echinochloa crusgalli, the “Activity level (growth inhibition rate), Echinochloa crusgalli” value is 5 (Level 5: the growth inhibition rate is greater than 85%). Moreover, the “rice … (growth inhibition rate)” value in the data set on rice (200 g a.i./ha) was 0 (Level 0: the growth inhibition rate is less than 5%). The “rice, safety level 0-5” value in the data set with rice (japonica rice) is reported as 0 (Level 0: the growth inhibition rate is less than 5%). The “Digitaria sanguinalis, activity level (growth inhibition rate)” value with Digitaria sanguinalis (setting [3]) is reported as 5 (Level 5: the growth inhibition rate is greater than 85%). Further, the “Activity level (growth inhibition rate), Digitaria sanguinalis” value in the data set with Digitaria sanguinalis is on record as 5 (Level 5: the growth inhibition rate is greater than 85%).

With `CC(Oc1nc(F)c(Cl)c(N)c1Cl)C(=O)OCc1ccccc1` (stereo not shown) [Compound 2-300], the “Monochoria Vaginalis, activity level 0-5” value in the data set on Monochoria vaginalis is 5 (Level 5: the growth inhibition rate is greater than 85%). In data set [1] (setting [3]), the “Semen Euphorbiae Lathyridis, activity level (growth inhibition rate)” value is on record as 5 (Level 5: the growth inhibition rate is greater than 85%). For the same compound, in data set [2], the “Activity level (growth inhibition rate), Abutilon theophrasti Medic.” value is reported as 5 (Level 5: the growth inhibition rate is greater than 85%); the “Activity level (growth inhibition rate), Galium aparine” value was 5 (Level 5: the growth inhibition rate is greater than 85%); the “Activity level (growth inhibition rate), Monochoria Vaginalis” value is recorded as 5 (Level 5: the growth inhibition rate is greater than 85%). In addition, in the data set with Echinochloa crusgalli (setting [4]), the “Echinochloa crusgalli, activity level (growth inhibition rate)” value was 5 (Level 5: the growth inhibition rate is greater than 85%). For the same compound, in the data set on Echinochloa crusgalli, the “Activity level (growth inhibition rate), Echinochloa crusgalli” value is on record as 5 (Level 5: the growth inhibition rate is greater than 85%). The “rice … (growth inhibition rate)” value in the data set on rice (200 g a.i./ha) is reported as 0 (Level 0: the growth inhibition rate is less than 5%). In addition, the “rice, safety level 0-5” value in the data set on rice (japonica rice) is reported as 0 (Level 0: the growth inhibition rate is less than 5%). For the same compound, the “Digitaria sanguinalis, activity level (growth inhibition rate)” value with Digitaria sanguinalis (setting [3]) is listed as 5 (Level 5: the growth inhibition rate is greater than 85%). For the same compound, the “Activity level (growth inhibition rate), Digitaria sanguinalis” value in the data set on Digitaria sanguinalis is reported as 5 (Level 5: the growth inhibition rate is greater than 85%).

Turning to `C[C@@H](Oc1nc(F)c(Cl)c(N)c1Cl)C(=O)SCc1ccc(Cl)cc1` [Compound 2-319], the “Monochoria Vaginalis, activity level 0-5” value in the data set with Monochoria vaginalis was 5 (Level 5: the growth inhibition rate is greater than 85%). The inhibition at 200 g/ha in data set [1] (setting [3]) is above 85%. For the same compound, in data set [2], the “Activity level (growth inhibition rate), Abutilon theophrasti Medic.” value is reported as 5 (Level 5: the growth inhibition rate is greater than 85%); the “Activity level (growth inhibition rate), Galium aparine” value is 5 (Level 5: the growth inhibition rate is greater than 85%); the “Activity level (growth inhibition rate), Monochoria Vaginalis” value was 5 (Level 5: the growth inhibition rate is greater than 85%). The “Activity level (growth inhibition rate), Echinochloa crusgalli” value in the data set on Echinochloa crusgalli is 5 (Level 5: the growth inhibition rate is greater than 85%). In addition, the inhibition at 200 g/ha with Echinochloa crusgalli (setting [4]) is above 85%. For the same compound, in the data set with rice (200 g a.i./ha), the “rice … (growth inhibition rate)” value was 0 (Level 0: the growth inhibition rate is less than 5%). Further, the “rice, safety level 0-5” value in the data set on rice (japonica rice) was 0 (Level 0: the growth inhibition rate is less than 5%). Further, in the data set with Digitaria sanguinalis, the “Activity level (growth inhibition rate), Digitaria sanguinalis” value was 5 (Level 5: the growth inhibition rate is greater than 85%). The inhibition at 200 g/ha in the data set with Digitaria sanguinalis (setting [3]) was above 85%.
